From ChEMBL document CHEMBL1649527, “Daptomycin rapidly penetrates a Staphylococcus epidermidis biofilm” (Antimicrob Agents Chemother, 2009) come the findings set out here.

Data set [1] concerns Staphylococcus epidermidis. Put plainly: Permeability of rhodamine-tagged compound across Staphylococcus epidermidis RP62A biofilms assessed as diffusion coefficient at 23 degC by time lapse confocal scanning microscopy. It counts as ADME, organism-based. The following applies: in vivo.
In data set [2] the test system is Staphylococcus epidermidis. Put plainly: Permeability of Bodipy-tagged compound across Staphylococcus epidermidis RP62A biofilms with 278 micrometer radial dimensions and 168 micrometer orthogonal dimensions assessed as time required for fluorescence intensity in centre of biofilm cluster to reach 50% of steady state maximum bulk fluid fluorescence intensity. It counts as ADME, organism-based. The following applies: in vivo.

In data set [3] the test system is Staphylococcus epidermidis. Put plainly: Permeability of rhodamine-tagged compound across Staphylococcus epidermidis RP62A biofilms with 207 micrometer radial dimensions and 97 micrometer orthogonal dimensions assessed as time required for fluorescence intensity in centre of biofilm cluster to reach 50% of steady state maximum bulk fluid fluorescence intensity. It counts as ADME, organism-based. To be noted: in vivo.

For data set [4], the system named is Staphylococcus epidermidis. Briefly: Permeability of Bodipy-tagged compound across Staphylococcus epidermidis RP62A biofilms with 223 micrometer radial dimensions and 153 micrometer orthogonal dimensions assessed as time required for fluorescence intensity in centre of biofilm cluster to reach 50% of steady state maximum bulk fluid fluorescence intensity. In kind it is ADME, organism-based. To be noted: in vivo.

In data set [5] the test system is Staphylococcus epidermidis. Briefly: Permeability of rhodamine-tagged compound across Staphylococcus epidermidis RP62A biofilms with 217 micrometer radial dimensions and 115 micrometer orthogonal dimensions assessed as time required for fluorescence intensity in centre of biofilm cluster to reach 50% of steady state maximum bulk fluid fluorescence intensity. It counts as ADME, organism-based. To be noted: in vivo.

For data set [6], the system named is Staphylococcus epidermidis. Put plainly: Permeability of unlabeled compound across Staphylococcus epidermidis RP62A biofilms assessed as diffusion coefficient at 23 degC by time lapse confocal scanning microscop. The following applies: in vivo. In kind it is ADME, organism-based.
The subject of data set [7] is Staphylococcus epidermidis. Put plainly: Permeability of Bodipy-tagged compound across Staphylococcus epidermidis RP62A biofilms assessed as diffusion coefficient at 23 degC by time lapse confocal scanning microscopy. It counts as ADME, organism-based. The following applies: in vivo.
A short description of data set [8]: Aqueous diffusion coefficient of Bodipy-tagged compound at 23 degC by time lapse confocal scanning microscopy. In kind it is physicochemical. To be noted: buffer.
Data set [9] has as its system Staphylococcus epidermidis. Briefly: Permeability of Bodipy-tagged compound across Staphylococcus epidermidis RP62A biofilms with 181 micrometer radial dimensions and 103 micrometer orthogonal dimensions assessed as time required for fluorescence intensity in centre of biofilm cluster to reach 50% of steady state maximum bulk fluid fluorescence intensity. In kind it is ADME, organism-based. The following applies: in vivo.

Data set [10] relates to Staphylococcus epidermidis. Briefly: Permeability of rhodamine-tagged compound across Staphylococcus epidermidis RP62A biofilms with 94 micrometer radial dimensions and 63 micrometer orthogonal dimensions assessed as time required for fluorescence intensity in centre of biofilm cluster to reach 50% of steady state maximum bulk fluid fluorescence intensity. It counts as ADME, organism-based. To be noted: in vivo.

Data set [11] in a line: Aqueous diffusion coefficient of rhodamine-tagged compound at 23 degC by time lapse confocal scanning microscopy. It counts as physicochemical. To be noted: buffer.

As for `CCCCCCCCCC(=O)N[C@@H](Cc1c[nH]c2ccccc12)C(=O)N[C@H](CC(N)=O)C(=O)N[C@@H](CC(=O)O)C(=O)N[C@@H]1C(=O)NCC(=O)N[C@@H](CCCN)C(=O)N[C@@H](CC(=O)O)C(=O)N[C@H](C)C(=O)N[C@@H](CC(=O)O)C(=O)NCC(=O)N[C@H](CO)C(=O)N[C@@H]([C@H](C)CC(=O)O)C(=O)N[C@@H](CC(=O)c2ccccc2N)C(=O)O[C@@H]1C`, the D in [1] came out at 4.7 ×10⁻⁷ cm2/sec; in [6], 0.78 ×10⁻⁶ cm2/s; in [7], 5.2 ×10⁻⁷ cm2/sec; in data set [8] it was 1.73 ×10⁻⁶ cm2/s; in data set [11] it was 1.78 ×10⁻⁶ cm2/s. Further, the Time is given as 210 s in data set [2]; 40 s in [3]; 60 s in data set [4]; 140 s in data set [5]; 67 s in data set [9]; 26 s in data set [10].
